What all share (test): relative viability (nuclei count vs DMSO), 5 days (fraction); higher = more cells survive
Compound in assay [1]: CCN(CC)CCNC(=O)c1c(C)[nH]c(/C=C2\C(=O)Nc3ccc(F)cc32)c1C [Sunitinib]
The method, boiled down: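 Lung cancer cell lines received five library-drug doses (not always all listed) spaced by √10, pinned on vehicle-anchored 1536-well plates after an overnight stay at 37 °C. Five days later, with no medium change, nuclei were Hoechst-stained, imaged at 4× and counted with MetaXpress. Viability is treated-well nuclei relative to vehicle-well nuclei, as a median across plates. Passing plates had control CV below 25% and at least one doubling.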

Compound in assay [2]: CCN(CC)CCNC(=O)c1c(C)[nH]c(/C=C2\C(=O)Nc3ccc(F)cc32)c1C [Sunitinib] + CC1(C)CCC(c2ccc(Cl)cc2)=C(CN2CCN(c3ccc(C(=O)NS(=O)(=O)c4ccc(N[C@H](CCN5CCOCC5)CSc5ccccc5)c(S(=O)(=O)C(F)(F)F)c4)cc3)CC2)C1 [Navitoclax] (partner 0.5 µM)
The method, boiled down: (§1)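 The day after seeding in 1536-well plates, lung cancer cell lines were treated by pin tool with a single drug, or with a fixed anchor-drug dose together with five library-drug doses (not always all listed) in √10 steps. After 5 days, a combined fix-and-stain solution (final 0.05% Triton X-100, 1% formaldehyde, 1 ug/ml Hoechst) was added. Nuclei counted on 4× images gave relative viability as treated counts over vehicle counts, reported as the median of duplicate plates.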

Compound in assay [3]: CCN(CC)CCNC(=O)c1c(C)[nH]c(/C=C2\C(=O)Nc3ccc(F)cc32)c1C [Sunitinib] + Cc1cc(Nc2cc(N3CCN(C)CC3)nc(Sc3ccc(NC(=O)C4CC4)cc3)n2)n[nH]1 [Tozasertib] (partner 0.1 µM)
Summed up:
as §1

Compound in assay [4]: CCN(CC)CCNC(=O)c1c(C)[nH]c(/C=C2\C(=O)Nc3ccc(F)cc32)c1C [Sunitinib] + N=C(N)NC(=N)NCCc1ccccc1 [Phenformin] (partner 250 µM)
Summed up:
as §1

The results in this text go back to the supplement of paper PMC10307832.

On to EPLC-272H, for which the relative viability in assay [1] (0.02 µM) was found to be 0.841; in assay [1] (0.06325 µM) it was 1.07; in assay [1] (0.2 µM), 0.939; in assay [1] (0.6325 µM), 0.98; in assay [1] (2 µM), 0.795; in assay [2] (first compound 0.02 µM), 1.09. For the same cell line, the relative viability in assay [2] (first compound 0.06325 µM) was found to be 1.2; in assay [2] (first compound 0.2 µM), 1.38; in assay [2] (first compound 0.6325 µM) it was 1.12; in assay [2] (first compound 2 µM), 0.921; in assay [3] (first compound 0.02 µM) it was 0.382; in assay [3] (first compound 0.06325 µM), 0.333. The relative viability is 0.285 in assay [3] (first compound 0.2 µM); 0.196 in assay [3] (first compound 0.6325 µM); 0.318 in assay [3] (first compound 2 µM); 0.335 in assay [4] (first compound 0.02 µM); 0.334 in assay [4] (first compound 0.06325 µM); 0.324 in assay [4] (first compound 0.2 µM). Further, the results for the relative viability in assay [4] (first compound 0.6325 µM) and in assay [4] (first compound 2 µM) were 0.313 and 0.263, respectively.
Turning to H3255, the relative viability is 0.94 in assay [1] (0.02 µM); 0.902 in assay [1] (0.06325 µM); 1.02 in assay [1] (0.6325 µM); 0.988 in assay [1] (2 µM); 0.477 in assay [2] (first compound 0.02 µM); 0.52 in assay [2] (first compound 0.06325 µM). Further, the relative viability in assay [2] (first compound 0.2 µM) was determined as 0.634; in assay [2] (first compound 0.6325 µM), 0.548; in assay [2] (first compound 2 µM) it was 0.519; in assay [3] (first compound 0.02 µM), 0.763; in assay [3] (first compound 0.06325 µM) it was 0.879; in assay [3] (first compound 0.2 µM) it was 0.785. Moreover, the relative viability in assay [3] (first compound 0.6325 µM) came out at 0.73; in assay [3] (first compound 2 µM) it was 0.654; in assay [4] (first compound 0.02 µM), 0.4; in assay [4] (first compound 0.06325 µM) it was 0.383; in assay [4] (first compound 0.2 µM), 0.344; in assay [4] (first compound 0.6325 µM) it was 0.411. Besides, in assay [4] (first compound 2 µM), the relative viability amounted to 0.365.
As to HARA, the relative viability in assay [1] (0.02 µM) is 0.966; in assay [1] (0.06325 µM), 1.16; in assay [1] (0.2 µM), 1.03; in assay [1] (0.6325 µM) it was 0.987; in assay [2] (first compound 0.02 µM), 1.05; in assay [2] (first compound 0.06325 µM), 1.18. For the same cell line, the relative viability in assay [2] (first compound 0.2 µM) amounted to 1.16; in assay [2] (first compound 0.6325 µM) it was 1.18; in assay [2] (first compound 2 µM), 1.2; in assay [3] (first compound 0.02 µM), 0.105; in assay [3] (first compound 0.06325 µM), 0.148; in assay [3] (first compound 0.2 µM), 0.216. The relative viability in assay [3] (first compound 0.6325 µM) amounted to 0.076; in assay [3] (first compound 2 µM) it was 0.0991; in assay [4] (first compound 0.02 µM) it was 0.478; in assay [4] (first compound 0.06325 µM), 0.495; in assay [4] (first compound 0.2 µM) it was 0.484; in assay [4] (first compound 0.6325 µM) it was 0.399. In addition, in assay [4] (first compound 2 µM), the relative viability worked out at 0.43.
For HCC-15, the relative viability was found to be 0.988 in assay [1] (0.02 µM); 1.11 in assay [1] (0.06325 µM); 1.04 in assay [1] (0.6325 µM); 1 in assay [1] (2 µM); 0.705 in assay [2] (first compound 0.02 µM); 0.765 in assay [2] (first compound 0.06325 µM). The relative viability in assay [2] (first compound 0.6325 µM) turned out to be 0.744; in assay [2] (first compound 2 µM), 0.691; in assay [3] (first compound 0.02 µM) it was 0.407; in assay [3] (first compound 0.06325 µM), 0.371; in assay [3] (first compound 0.2 µM), 0.468; in assay [3] (first compound 0.6325 µM) it was 0.411. In addition, the relative viability in assay [3] (first compound 2 µM) is 0.651; in assay [4] (first compound 0.02 µM), 0.424; in assay [4] (first compound 0.06325 µM) it was 0.523; in assay [4] (first compound 0.2 µM) it was 0.588; in assay [4] (first compound 0.6325 µM), 0.49; in assay [4] (first compound 2 µM), 0.404.
